According to patent US20250235399A1, “METHODS OF PREPARING CARRIER-BASED DRY POWDERS FOR INHALATION” (Board of Regents, The University of Texas System, priority 2022, published 2025):

Assays:
[1] = Geometric particle size of rifampicin blends and starting materials (HELOS laser diffraction, RODOS); format: physicochemical; conditions: Table 3; for X10 / X50 / X90: particle size distribution
Description: The geometric particle size of the powder blends was measured using laser diffraction (HELOS, Sympatec, Germany) for the pre-blend and after each blending cycle. Measurements were done using a RODOS powder disperser at a pressure drop of 1 bar and rotor speed set at 50% (FIG. 6). […] The particles diameter is expressed as the mean Xn diameter values, where n % of the particles have a diameter≤X. Jaffari, S., et al. Rapid Characterisation of the Inherent Dispersibility of Respirable Powders Using Dry Dispersion Laser Diffraction. Int. J. Pharm. […] A measure of particle size distribution breadth is represented by the calculated factor “Span”. This was calculated using the following expression: (X90−X10)/X50.
Particle size analysis was conducted on blended materials and compared to pre-blend and lactose/magnesium stearate controls.

[2] = Particle size of budesonide blend starting materials (HELOS/RODOS laser diffraction); format: physicochemical; conditions: RODOS laser diffraction, 3 bar, 50% rotation
Description: Particle size distribution of alpha-lactose monohydrate, magnesium stearate and budesonide were analyzed using a laser diffractometer (Sympatec, Clausthal-Zellerfeld, Germany). […] About 0.5 g of each component was carefully loaded on the turntable of the vibratory feeding module. Samples were dispersed at 3 bar and 50% rotation (FIG. 11). Data was acquired using Windox software (Sympatec, Clausthal-Zellerfeld, Germany) and volume-based size distribution was calculated using Fraunhofer theory.
Table 6 lists the particle size distribution for starting materials as determined by laser diffraction. Budesonide was confirmed to be sufficiently micronized (e.g. less than 5 μm). Magnesium stearate and lactose size distributions were within the size ranges provided by manufacturers.

Compound	X10 [1]	X50 [1]	X90 [1]	D10 [2]	D50 [2]	D90 [2]	Span ((X90-X10)/X50) [1]
O.OC[C@H]1O[C@@H](O[C@H]2[C@H](O)[C@@H](O)[C@@H](O)O[C@@H]2CO)[C@H](O)[C@@H](O)[C@H]1O [Lactohale 206]	1.91 μm	4.15 μm	116.14 μm	–	–	–	–
O.OC[C@H]1O[C@@H](O[C@H]2[C@H](O)[C@@H](O)[C@@H](O)O[C@@H]2CO)[C@H](O)[C@@H](O)[C@H]1O [Lactose, Alpha-lactose monohydrate]	–	–	–	32.09 μm	80.34 μm	111.84 μm	–
Magnesium stearate	2.08 μm	8.14 μm	17.34 μm	1.29 μm	4.45 μm	9.93 μm	1.87
